“And” between values parts separate entries of the source, which are not always exact repeats. Equal entries are not always repeated. Structures can show the parent of a compound that is named as a salt. Where two headings read alike, the source gives them in different places.

Here are results for 10 compounds from patent US20090047365A1, “Novel Concomitant Use of Sulfonamide Compound with Anti-Cancer Agent” (Eisai R & D Management Co., Ltd., priority 2005, published 2009).

Test [1] relates to Human umbilical vein endothelial cells. Put plainly: vascular endothelial cell proliferation assay (in vitro), combinational use of E7820 and anti-cancer drug. The test is classed as cell-based. The method, then: These diluted solutions were added to the cultured wells for 100 μl/well for further cultivation.
The subject of test [2] is Human umbilical vein endothelial cell (HUVEC). Put plainly: vascular endothelial cell lumen formation assay (in vitro), combinational use of E7820 and anti-cancer drug. It is filed as cell-based. The method, then: Four-hundred μl of type I collagen gel (Nitta Gelatin) was dispensed in a 24-well plate (FALCON) and left in a CO2 incubator at 37° C. for 40 minute for gelatinization. A serum-free medium (Human endothelial-SFM Basal Growth Medium, Invitrogen) containing 20 ng/ml EGF (GIBCO BRL) was prepared. Two-hundred μl of this solution was dispensed in the wells containing type I collagen gel. Human umbilical vein endothelial cell (HUVEC) line was suspended in a serum-free medium (Human endothelial-SFM Basal Growth Medium, GIBCO BRL) to prepare 5×10^5 cells/ml cell suspension. Two-hundred μl of this suspension was seeded on the wells containing the type I collagen gel and the serum-free medium and cultured overnight.
On the following day, the wells were overlaid with 400 μl of type I collagen gel and left in a CO2 incubator at 37° C. for 3 hours for gelatinization. Then, the serum-free media (containing 10 ng/ml EGF and 20 ng/ml VEGF (Genzyme Techne Corp.)) containing E7820 alone, containing an anti-cancer drug alone and containing both E7820 and the anti-cancer drug for combinational use were added for 1.5 ml each and further cultured in a CO2 incubator at 37° C. for 3 days.
After the cultivation, 400 μl of 3.3 mg/ml MTT (SIGMA) solution was dispensed in the wells and reacted in a CO2 incubator at 37° C. for 3 hours for the cells to develop color.

In another test the test system is HCT116 cells. The experiment in a line: DNA microarray analysis (Example 8), correlation coefficients and hierarchical cluster analysis. The test is classed as cell-based, human. As to conditions: 24 hours treatment at twice the 50% growth inhibitory concentration, similarity among the compounds named together. The method, then:
HCT116 cells were cultured in an RPMI-1640 medium supplemented with 10% fetal bovine serum, 100 units/ml penicillin and 100 μg/ml streptomycin. The following cultivation and compound treatment were carried out in an incubator at 5% CO2 and 37° C. HCT116 cells were seeded in 10 cm-diameter cell culture dishes at 2.0×10^6 cells/dish, cultured for 24 hours and subjected to the following compound treatment.
In this example, changes in the gene expression of HCT116 cells upon treatments with 12 compounds, i.e., E7820 (0.16 μM), E7070 (0.26 μM), LY186641 (59 μM), LY295501 (24 μM), LY-573636 (9.6 μM), CQS (4.0 μM), MST16 (100 μM), etoposide (3.6 μM), ethoxzolamide (410 μM), capsaicin (280 μM), trichostatin A (0.16 μM) and kenpaullone (7.1 μM) were examined.
The concentration of each compound used for the treatment was set to twice the 50% growth inhibitory concentration of each compound to the HCT116 cells (based on three days of antiproliferatrive activity using MTT). The cells were collected 24 hours after the treatment at the concentration indicated in parentheses following each compound name above. Similarly, cells cultured for 24 hours without the addition of any compound were also collected.
Total RNA extraction from the collected cells was performed using TRIZOL reagent (Invitrogen) according to the attached instruction.
Gene expression analysis using a DNA microarray was carried out in the same manner as “(2) Analysis of gene expression using DNA microarray” in Example 7.
This example was conducted for each sample in duplicate (for the convenience of the experiment, samples were given branch numbers like control-1, control-2, E7070-1, E7070-2 and so on for distinction). Then, GeneChip (Affymetrix) system (Human Focus array) was used for analyzing changes in the gene expression induced by each compound.
Twenty-six “.cel” files obtained in this example (13 samples (a control+12 compounds)×2) were subjected to RMA method (robust multi-array average method (Biostatistics (2003), 4, 249-264)) for normal distribution at probe level, and then the logarithm value of the signal intensity at gene level was calculated. Next, the logarithm value of the signal intensity of the untreated group (control-1) was subtracted from the logarithm value of the signal intensity of the compound-treated group for each gene to obtain the logarithm value of the signal ratio of the compound-treated group to control-1. Then, cosine correlation coefficients were calculated as correlation coefficients between the experiments (FIG. 5). Based on these correlation coefficients, hierarchical cluster analysis was performed according to UPGMA method (Unweighted Pair Group Method with Arithmetic mean method) (FIG. 6). Control-2 was also subjected to similar calculation (FIGS. 7 and 8). The softwares used were R 2.0.1 (http://www.r-project.org/) and affy package 1.5.8 (http://www.bioconductor.org).

Setting [3] is: combined with E7820, fa 0.6, HUVEC proliferation.
[4] abbreviates: combined with E7820, fa 0.7, HUVEC proliferation.
The mark [5] stands for this setting: combined with E7820, fa 0.8, HUVEC proliferation.
Setting [6] is: combined with E7820, fa 0.9, HUVEC proliferation.
Setting [7] is: combined with E7820, fa 0.95, HUVEC proliferation.

For the compound “10-[(3-amino-2,3,6-trideoxy-α-L-lyxo-hexopyranosyl)oxy]-7,8,9,10-tetrahydro-6,8,11-tri hydroxy-8-(hydroxyacetyl)-1-methoxy-(8S-cis)-5,12-naphthacenedione [Doxorubicin]”, the Combined effect entry in test [1] (setting [3]) is “Synergistic”; in test [1] (setting [4]), “Synergistic”; in test [1] (setting [5]), “Synergistic”; in test [1] (setting [6]), “Synergistic”; in test [1] (setting [7]), “Synergistic”; in test [2] (combined with E7820, fa 0.2) it was “Synergistic”. Further, the Combined effect result was “Synergistic” in test [2] (combined with E7820, fa 0.3); “Synergistic” in test [2] (combined with E7820, fa 0.4); “Synergistic” in test [2] (combined with E7820, fa 0.5); “Synergistic” in test [2] (combined with E7820, fa 0.6); “Synergistic” in test [2] (combined with E7820, fa 0.7); “Synergistic” in test [2] (combined with E7820, fa 0.8). The Combined effect entry in test [2] (combined with E7820, fa 0.9) is “Synergistic”; in test [2] (combined with E7820, fa 0.95), “Synergistic”.
On to `Nc1ccc(S(=O)(=O)Nc2cnc3c(Cl)cccc3n2)cc1` [CQS, 2-sulfanylamide-5-chloroquinoxaline], for which the “changes in gene expression (correlation coefficients, hierarchical cluster analysis)” value in the test on HCT116 cells is on record as “very similar genetic alterations”.
With `N.N.[Cl][Pt][Cl]` [Cisplatin, cis-diamminedichloroplatinum II], the Combined effect entry is recorded as “Synergistic” in test [1] (setting [3]); “Synergistic” in test [1] (setting [4]); “Synergistic” in test [1] (setting [5]); “Synergistic” in test [1] (setting [6]); “Synergistic” in test [1] (setting [7]); “Synergistic” in test [2] (combined with E7820, fa 0.05). Also, the Combined effect result in test [2] (combined with E7820, fa 0.1) is reported as “Synergistic”; in test [2] (combined with E7820, fa 0.2) it was “Synergistic”; in test [2] (combined with E7820, fa 0.3), “Synergistic”; in test [2] (combined with E7820, fa 0.4), “Synergistic”; in test [2] (combined with E7820, fa 0.5), “Synergistic”; in test [2] (combined with E7820, fa 0.6) it was “Synergistic”. Moreover, the Combined effect entry in test [2] (combined with E7820, fa 0.7) is “Synergistic”; in test [2] (combined with E7820, fa 0.8), “Synergistic”; in test [2] (combined with E7820, fa 0.9), “Synergistic”; in test [2] (combined with E7820, fa 0.95), “Synergistic”. Further, the “Combination index (CI)” value in test [1] (setting [4]) worked out at 0.7; in test [1] (setting [5]) it was 0.5; in test [1] (setting [6]), 0.4; in test [1] (setting [7]), 0.3; in test [1] (combined with E7820, fractional inhibition (fa) 0.6, HUVEC proliferation), 0.9; in test [2] (combined with E7820, fa 0.05) it was 0.7. For the same compound, the “Combination index (CI)” value in test [2] (combined with E7820, fa 0.1) came to 0.6; in test [2] (combined with E7820, fa 0.2), 0.6; in test [2] (combined with E7820, fa 0.3), 0.6; in test [2] (combined with E7820, fa 0.4) it was 0.5; in test [2] (combined with E7820, fa 0.5) it was 0.5; in test [2] (combined with E7820, fa 0.6), 0.5. Further, the “Combination index (CI)” value came to 0.5 in test [2] (combined with E7820, fa 0.7); 0.5 in test [2] (combined with E7820, fa 0.8); 0.5 in test [2] (combined with E7820, fa 0.9); 0.4 in test [2] (combined with E7820, fa 0.95).
Take `Nc1ccn([C@@H]2O[C@H](CO)[C@@H](O)C2(F)F)c(=O)n1` [Gemcitabine, 2′-deoxy-2′,2′-difluoro-cytidine hydrochloride]: the Combined effect result in test [1] (setting [5]) is “Synergistic”; in test [1] (setting [6]), “Synergistic”; in test [2] (combined with E7820, fa 0.3), “Synergistic”; in test [2] (combined with E7820, fa 0.4), “Synergistic”; in test [2] (combined with E7820, fa 0.5), “Synergistic”; in test [2] (combined with E7820, fa 0.6), “Synergistic”. Further, the Combined effect result in test [2] (combined with E7820, fa 0.7) is on record as “Synergistic”; in test [2] (combined with E7820, fa 0.8) it was “Synergistic”; in test [2] (combined with E7820, fa 0.9), “Synergistic”; in test [2] (combined with E7820, fa 0.95) it was “Synergistic”.
Turning to `O=C(Nc1ccc(Cl)cc1)NS(=O)(=O)c1ccc2c(c1)CCC2` [LY186641, N-[[(4-chlorophenyl)amino]carbonyl]-2,3-dihydro-1H-indene-5-sulfonamide], in the test on HCT116 cells, the “changes in gene expression (correlation coefficients, hierarchical cluster analysis)” value is given as “very similar genetic alterations”.
Still for that read-out and setting: the value for `O=C(Nc1ccc(Cl)c(Cl)c1)NS(=O)(=O)c1ccc2c(c1)CCO2` [LY295501, N-[[(3,4-dichlorophenyl)amino]carbonyl]-2,3-dihydrobenzofuran-5-sulfonamide] was “very similar genetic alterations”; that for `O=C(NS(=O)(=O)c1ccc(Br)s1)c1ccc(Cl)cc1Cl` [LY573636, N-(2,4-dichlorobenzoyl)-5-bromothiophene-2-sulfonamide] was “very similar genetic alterations”.
For `CN(Cc1cnc2nc(N)nc(N)c2n1)c1ccc(C(=O)N[C@@H](CCC(=O)O)C(=O)O)cc1` [Methotrexate, N-{4-[N-(2,4-diaminopteridin-6-ylmethyl)-N-methylamino]benzoyl}-L-glutamic acid], the Combined effect result in test [1] (setting [6]) and in test [1] (setting [7]) was “Synergistic” in each case.
For `CC(=O)O[C@H]1C(=O)[C@@]2(C)[C@H]([C@H](OC(=O)c3ccccc3)[C@]3(O)C[C@H](OC(=O)[C@H](O)[C@@H](NC(=O)c4ccccc4)c4ccccc4)C(C)=C1C3(C)C)[C@]1(OC(C)=O)CO[C@@H]1C[C@@H]2O` [Paclitaxel, (−)-(1S, 2R, 3S, 4S, 5R, 7S, 8S, 10R, 13S)-4,10-diacetoxy-2-benzoyloxy-5,20-epoxy, 1,7-dihydroxy-9-oxotax-11-en-13-yl (2S,3S)-3-benzoylamino-2-hydroxy-3-phenylpropionate], the Combined effect entry is listed as “Synergistic” in test [1] (setting [4]); “Synergistic” in test [1] (setting [5]); “Synergistic” in test [1] (setting [6]); “Synergistic” in test [1] (setting [7]); “Synergistic” in test [2] (combined with E7820, fa 0.7); “Synergistic” in test [2] (combined with E7820, fa 0.8). Further, the Combined effect result in test [2] (combined with E7820, fa 0.9) is “Synergistic”; in test [2] (combined with E7820, fa 0.95), “Synergistic”.
With `CCc1c2c(nc3ccc(O)cc13)-c1cc3c(c(=O)n1C2)COC(=O)[C@]3(O)CC` [SN38, 7-ethyl-10-hydro-(20)S-Camptothecin], the “Combination index (CI)” value in test [1] is 0.6 and 0.5 and 0.8. For the same compound, the Combined effect entry in test [1] (setting [3]) was “Synergistic”; in test [1] (setting [4]), “Synergistic”; in test [1] (setting [5]), “Synergistic”; in test [1] (setting [6]), “Synergistic”; in test [1] (setting [7]), “Synergistic”; in test [2] (combined with E7820, fa 0.3), “Synergistic”. Further, the Combined effect entry in test [2] (combined with E7820, fa 0.4) is “Synergistic”; in test [2] (combined with E7820, fa 0.5), “Synergistic”; in test [2] (combined with E7820, fa 0.6) it was “Synergistic”; in test [2] (combined with E7820, fa 0.7), “Synergistic”; in test [2] (combined with E7820, fa 0.8) it was “Synergistic”; in test [2] (combined with E7820, fa 0.9) it was “Synergistic”. In test [2] (combined with E7820, fa 0.95), the Combined effect entry is “Synergistic”.
